Data as given in the PolyMetriX glass transition set.
± gives the standard deviation of the reports.

Row | SMILES | glass transition temperature [°C]
1 | *c1cccc(C(=O)Nc2ccc(Oc3ccc(S(=O)(=O)c4ccc(Oc5ccc(NC(=O)c6cccc(N7C(=O)c8ccc(-c9cccc%10c9C(=O)N(*)C%10=O)cc8C7=O)c6)cc5)cc4)cc3)cc2)c1 (repeat unit) | 263.00
2 | *C(=O)c1ccc2c(c1)C(=O)N(c1c(CC)cc(Cc3cc(CC)c(N4C(=O)c5ccc(*)cc5C4=O)c(CC)c3)cc1CC)C2=O (repeat unit) | 272.50 ± 33
3 | *CC(*)CCCCC (repeat unit) [Poly(pentylethylene)] | -44.33 ± 1.7
4 | *Oc1ccc(C(=O)c2ccc(Oc3ccc(C(=O)c4ccc(Oc5ccc(Cc6ccc(*)cc6)cc5)cc4)cc3)cc2)cc1 (repeat unit) | 128.00
5 | *c1cccc(N2C(=O)c3c(c(-c4ccccc4)c(-c4ccc(-c5c(-c6ccccc6)c6c(c(-c7ccccc7)c5-c5ccccc5)C(=O)N(*)C6=O)cc4)c(-c4ccccc4)c3-c3ccccc3)C2=O)c1 (repeat unit) | 416.00
6 | *Oc1c(Br)cc(C(C)(C)c2cc(Br)c(OC(=O)c3cccc(C(*)=O)c3)c(Br)c2)cc1Br (repeat unit) | 115.00
7 | *CC(*)C(=O)OCCOCC1(CC)COC1 (repeat unit) | -16.00
8 | *c1ccc(Sc2ccc(-c3nc4cc(-c5ccc6nc(-c7ccccc7)c(*)nc6c5)ccc4nc3-c3ccccc3)cc2)cc1 (repeat unit) | 288.00
9 | *Oc1ccc(C(c2ccc(Oc3ccc(C(=O)c4ccc(P(=O)(c5ccccc5)c5ccc(C(=O)c6ccc(*)cc6)cc5)cc4)cc3)cc2)(C(F)(F)F)C(F)(F)F)cc1 (repeat unit) | 207.00
10 | *c1ccc(-c2ccc(-n3c(=O)c4c(C(F)(F)F)c5c(=O)n(*)c(=O)c5c(C(F)(F)F)c4c3=O)cc2C)c(C)c1 (repeat unit) | 385.00
11 | *c1ccc(Oc2ccc(N3C(=O)CC(C4C=C(C)C5C(=O)N(*)C(=O)C5C4)C3=O)cc2)cc1 (repeat unit) | 278.00
12 | *Nc1ccc(NC(=O)CCCCCCC(*)=O)cc1 (repeat unit) | 138.00
13 | *C/C=C/C[Si](*)(C)C (repeat unit) | -57.50
14 | *Oc1ccc(NC(=O)c2ccc(P(=O)(c3ccccc3)c3ccc(C(=O)Nc4ccc(Oc5ccc(P(=O)(c6ccccc6)c6ccc(*)cc6)cc5)cc4)cc3)cc2)cc1 (repeat unit) | 225.00
15 | *C(=O)c1ccc2c(c1)C(=O)N(c1ccc(OCCOCCOCCOc3ccc(N4C(=O)c5ccc(*)cc5C4=O)cc3)cc1)C2=O (repeat unit) | 200.00
16 | *CCCCCCOC(=O)OCCCCCCCCCCCCOC(=O)OCCCCCCOc1ccc(Oc2ccc(O*)cc2)cc1 (repeat unit) | -22.00
17 | *CCCCCCOC(=O)C(=O)O* (repeat unit) | 66.50
18 | *CC(O)COC(=O)CCCCC(=O)OCC(O)COc1ccc(/C=C(\C)c2ccc(O*)cc2)cc1 (repeat unit) | 33.00
19 | *C#Cc1cccc(C#C[Si](*)(C)C)c1 (repeat unit) | 50.00
20 | *c1ccc(C(=O)Nc2ccc(Oc3ccc(S(=O)(=O)c4ccc(Oc5ccc(NC(=O)c6ccc(N7C(=O)c8ccc(-c9cccc%10c9C(=O)N(*)C%10=O)cc8C7=O)cc6)cc5)cc4)cc3)cc2)cc1 (repeat unit) | 287.00
21 | *CC(*)c1ccc(C(=O)OCCN(CC)CC)cc1 (repeat unit) | 74.00
22 | *c1ccc(Oc2ccc(-c3ccc(Oc4ccc(N5C(=O)c6ccc(Oc7ccc(-c8ccc(Oc9ccc%10c(c9)C(=O)N(*)C%10=O)cc8)cc7)cc6C5=O)cc4)cc3)cc2)cc1 (repeat unit) | 220.00

Row | SMILES | glass transition temperature [°C]
23 | *c1ccc(Oc2cccc(-n3c(=O)c4cc5c(=O)n(-c6cccc(Oc7ccc(-c8nc9cc%10sc(*)nc%10cc9s8)cc7)c6)c(=O)c5cc4c3=O)c2)cc1 (repeat unit) | 400.00
24 | *CC(*)(C)C(=O)OCc1ccc2c(c1)c1ccccc1n2CCCCCC (repeat unit) | 73.00
25 | *CC(*)C(=O)OCCOC(=O)c1cc([N+](=O)[O-])cc([N+](=O)[O-])c1 (repeat unit) | 60.80
26 | *c1c(C)cc(-c2cc(C)c(N3C(=O)c4ccc(Oc5cc6ccccc6cc5Oc5ccc6c(c5)C(=O)N(*)C6=O)cc4C3=O)c(C)c2)cc1C (repeat unit) | 308.00
27 | *CC(*)C[Si](C)(C)C (repeat unit) | 114.00
28 | *CCCCCCN1C(=O)C(=O)N(*)C1=O (repeat unit) | 55.00
29 | *Oc1ccc(C(C)(c2ccccc2)c2ccc(OC(*)=O)cc2)cc1 (repeat unit) | 179.00
30 | *C(F)C(*)C(F)(F)F (repeat unit) | 87.00
31 | *c1ccc(OCCCCCCCCCCCCCCCC)c(N2C(=O)CC(C3C=C(C)C4C(=O)N(*)C(=O)C4C3)C2=O)c1 (repeat unit) | 186.00
32 | *c1ccc(S(=O)(=O)c2ccc(N3C(=O)c4ccc(Oc5ccc(Oc6ccc7c(c6)C(=O)N(*)C7=O)cc5)cc4C3=O)cc2)cc1 (repeat unit) | 283.00
33 | *OC(=O)c1ccc(CCCCCCc2ccc(C(*)=O)cc2)cc1 (repeat unit) | 20.00
34 | *Oc1ccc(C(=O)Nc2ccc(C(c3ccc(NC(=O)c4ccc(OC(=O)c5cccc(C(*)=O)c5)cc4)cc3)(C(F)(F)F)C(F)(F)F)cc2)cc1 (repeat unit) | 227.00
35 | *CCCCCOC(=O)c1ccccc1C(=O)[O][Cd][O]C(=O)c1ccccc1C(=O)OCCCCCOC(=O)NCCCCCCNC(=O)O* (repeat unit) | -6.80
36 | *CC(*)(C)C(=O)OCCN(CC)c1ccc([N+](=O)[O-])cc1 (repeat unit) | 98.00
37 | *Oc1ccc(NC(=O)c2ccc(S(=O)(=O)c3ccc(C(=O)Nc4ccc(Oc5ccc(C6(c7ccc(*)cc7)CC7CCC6C7)cc5)cc4)cc3)cc2)cc1 (repeat unit) | 287.00
38 | *OC(=O)c1ccc(CCCCCc2ccc(C(*)=O)cc2)cc1 (repeat unit) | 42.50
39 | *c1ccc2c(c1)C(=O)N(c1ccc(OC(C)COc3ccc(N4C(=O)c5ccc(C(*)(C(F)(F)F)C(F)(F)F)cc5C4=O)cc3)cc1)C2=O (repeat unit) | 234.00
40 | *Nc1cc(NC(=O)c2ccccc2C(*)=O)cc(-c2nnc(-c3ccccn3)o2)c1 (repeat unit) | 90.00
41 | *O[Si](*)(C)OCCCCCCCCCCCOc1ccc(C2COC(c3ccc(OCC(C)CC)cc3)OC2)cc1 (repeat unit) | 30.00
42 | *c1ccc(Oc2ccc(C(=O)c3cccc(C(=O)c4ccc(Oc5ccc(-c6nc(-c7ccccn7)nnc6*)cc5)cc4)c3)cc2)cc1 (repeat unit) | 202.00
43 | *CC(*)C(=O)OCCCCCOC(=O)c1ccc(OC(=O)c2ccc(C#N)cc2)cc1 (repeat unit) | 30.00
44 | *CCCCCCOC(=O)OCCCCCCCCCOC(=O)OCCCCCCOc1ccc(Oc2ccc(O*)cc2)cc1 (repeat unit) | -20.00

Row | SMILES | glass transition temperature [°C]
45 | *C(=O)Nc1cc(NC(=O)c2ccc3c(c2)C(=O)N(c2cc(-c4nnc(-c5ccccn5)o4)cc(N4C(=O)c5ccc(*)cc5C4=O)c2)C3=O)cc(-c2nnc(-c3ccccn3)o2)c1 (repeat unit) | 164.00
46 | *c1ccc(-c2nc3cc(-c4ccc5nc(-c6ccccc6)c(*)nc5c4)ccc3nc2-c2ccccc2)cc1 (repeat unit) [poly(phenylquinoxaline)] | 367.43 ± 3.4
47 | */C=C/C1=C(*)CC(C(=O)OCC)(C(=O)OCC)C1 (repeat unit) | 27.7
48 | *Oc1ccc(S(=O)(=O)c2ccc(Oc3ccc(C(C)(C)c4ccc(*)c(Cl)c4)cc3Cl)cc2)cc1 (repeat unit) | 205.00
49 | *CC(*)(C)C(=O)OCc1ccc(Cl)cc1 (repeat unit) | 43.60
50 | *c1ccc(Oc2ccc(-c3ccc(Oc4ccc(-c5nc(*)nc(-c6ccccc6)n5)cc4)cc3)cc2)cc1 (repeat unit) | 241.00
51 | *CCCCCCCCCCCCOC(=O)c1ccc2cc(C(=O)O*)ccc2c1 (repeat unit) | 45.00
52 | *N/C(C#N)=C(\C#N)NC(=O)c1ccc(C(*)=O)cc1 (repeat unit) | 232.00
53 | *Cc1ccccc1[Si](*)(c1ccccc1)c1ccccc1 (repeat unit) | 122.00
54 | *CCN(*)C(=O)c1ccc(F)cc1F (repeat unit) | 108.00
55 | *Oc1ccc2cc(Oc3ccc4c(=O)n5c6cc(-c7ccc8c(c7)nc7c9ccc(*)c%10cccc(c(=O)n87)c%109)ccc6nc5c5cccc3c45)ccc2c1 (repeat unit) | 413.00
56 | */C(Cl)=C(/*)CCCCCC (repeat unit) | 150.00
57 | *CC(*)C(=O)Oc1c(F)c(F)c(F)c(F)c1F (repeat unit) | 64.00
58 | *CC(c1ccccc1)C1C(=O)OC(=O)C1* (repeat unit) | 212.00
59 | *c1ccc(Oc2ccc(C(c3ccc(Oc4ccc(-n5c(=O)c6cc7c(=O)n(*)c(=O)c7cc6c5=O)cc4C(F)(F)F)cc3)(C(F)(F)F)C(F)(F)F)cc2)c(C(F)(F)F)c1 (repeat unit) | 253.00
60 | *c1ccc(Oc2ccc(S(=O)(=O)c3ccc(Oc4ccc(N5C(=O)c6ccc(Oc7cccc(Oc8ccc9c(c8)C(=O)N(*)C9=O)c7)cc6C5=O)cc4)cc3)cc2)cc1 (repeat unit) | 201.00
61 | *C/C=C/C[Si](*)(CCCOc1ccccc1)c1ccccc1 (repeat unit) | -5.00
62 | *CC(*)(C)C(=O)OCc1ccc(/C=C/C(=O)Oc2ccc3oc(=O)ccc3c2)cc1 (repeat unit) | 140.00
63 | *OC(CCc1ccccc1)CC(*)=O (repeat unit) | 18.00
64 | *OCCOC(=O)CCCC(=O)OCCOc1nc(-c2ccc(OCCCC)cc2)nc(*)c1-c1ccc(OCCCC)cc1 (repeat unit) | 37.00
65 | */C(=C(/c1ccc(*)cc1)c1ccc(Oc2ccccc2)cc1)c1ccc(Oc2ccccc2)cc1 (repeat unit) | 163.00
